In ChEMBL document CHEMBL6071128, “Chalcone-Monoterpene Derivatives from the Buds of Cleistocalyx operculatus and Their Potential as Protein Tyrosine Phosphatase 1B Inhibitors” (J Nat Prod, 2024):

Assays:
[1] = target: T1, Tyrosine-protein phosphatase non-receptor type 1 (Homo sapiens, UniProt P18031)
T1 sequence (P18031 whole entry): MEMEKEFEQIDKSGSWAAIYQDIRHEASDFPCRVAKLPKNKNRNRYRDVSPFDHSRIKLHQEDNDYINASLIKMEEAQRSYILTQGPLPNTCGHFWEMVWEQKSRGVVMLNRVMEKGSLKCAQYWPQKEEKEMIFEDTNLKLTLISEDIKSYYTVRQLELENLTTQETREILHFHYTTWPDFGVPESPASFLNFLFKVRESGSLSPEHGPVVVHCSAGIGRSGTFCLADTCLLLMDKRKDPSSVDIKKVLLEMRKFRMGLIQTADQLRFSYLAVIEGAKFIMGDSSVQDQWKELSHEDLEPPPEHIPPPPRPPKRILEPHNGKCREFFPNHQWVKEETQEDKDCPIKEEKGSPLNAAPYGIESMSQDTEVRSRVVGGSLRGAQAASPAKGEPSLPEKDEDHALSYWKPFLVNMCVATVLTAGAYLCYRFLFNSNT
Description: Inhibition of human recombinant PTP1B (1 to 322 residues) extracted from Escherichia coli using p-nitrophenyl phosphate as substrate incubated for 30 mins by absorbance based analysis

[2] = target: T1, Tyrosine-protein phosphatase non-receptor type 1; remark: listed apart in the source
Description: Binding affinity to human recombinant PTP1B (1 to 322 residues) extracted from Escherichia coli assessed as inhibition constant using p-nitrophenyl phosphate as substrate preincubated for 2 mins followed by substrate addition and measured after 15 mins by absorbance based analysis

| IC50 [1] [µM] | Ki [2] [µM] | Structure (SMILES) |
| --- | --- | --- |
| 1.4 | 3.4 | COc1c(C)c(O)c(C=O)c(O)c1C(=O)[C@@H]1CC(CCC=C(C)C)=CC[C@H]1c1ccccc1 |
| 1.1 | 5.9 | COc1c(C)c(O)c(C=O)c(O)c1C(=O)[C@H]1CC(CCC=C(C)C)=CC[C@@H]1c1ccccc1 |
| 1.5 | 5.2 | CC1=C2O[C@]34OC(c5ccccc5)CC(O)=C3C(=O)C(C)(C)C(=O)[C@]4(C)CC2=C(O)C(C(=O)/C=C/c2ccccc2)C1=O (some centres not stated) |
| 3.9 |  | COc1c(C)c(O)c(C=O)c(O)c1C(=O)/C=C/c1ccccc1 |
